Tests used:
Type in all cases: in vivo, mice
[1] = test system: CD8 cell infiltration in tumors; experiment: immunohistochemical analysis of CD8 cell infiltration in LLC tumors; details: Experiment LLC-6; combination compared to the monotherapies
Procedure: In another experiment, LLC tumors were established subcutaneously in both the leg and flank of the same animal. Animals were then treated with either cisplatin (4 mg/kg, d0) plus fractionated radiation given to the leg tumor (3.6 Gy/d, d0-4), i.v. EMD521873 alone (5 mg/kg, d7, 8, 9), or the combination of EMD521873 plus chemoradiation (Experiment LLC-6). Tumor growth and immune response in both the irradiated leg tumor and the non-irradiated flank tumor were monitored. […] CD8 effector cells were increased by approximately 4-fold in the blood with the combination compared to either chemoradiation or EMD521873 alone.

CT26-specific T-cells = experiment: ELISPOT assay for IFNγ induction in splenocytes, CT26/KSA model; details: radiation followed by EMD521873, compared to either therapy alone
Procedure: Enzyme-linked immunospot C (ELISPOT) assays for IFNγ induction in splenocytes were conducted by first coating ELISPOT plates with an anti-IFNγ antibody (murine IFNγ kit, BD Biosciences). Splenocytes from treated mice were added to the plates and incubated with an AH1:A5 peptide to stimulate IFNγ release from CT26-specific T-cells. Biotinylated IFNγ detection Ab and streptavidin-HRP were added to the plates. Resultant spots from individual IFNγ-producing lymphocytes were counted using a Zeiss® KS-ELISPOT plate reader.

[2] = test system: immune response markers in the tumor; experiment: immune marker gene expression profiles in B16 tumors; details: 10 Gy d0 followed by EMD521873, compared to either therapy alone
Procedure: (§1) Gene profiling of tumors was analyzed using excised tumor tissues placed in RNAlater® RNA stabilizing reagent upon harvest. Total RNA was prepared with an RNeasy® kit (Qiagen) and cDNA was prepared with the Superscript® III kit for qPCR (Life Technologies, Inc.). qPCR reactions were performed on an ABI7500 instrument in a standardized fashion and relative changes in gene expression were analyzed using the ddCt method (efficiency factor 95%). Housekeeping genes used for comparison included ACTB, B2M and HPRT1.
In addition, there was a moderate, but significant increase in certain immune response markers in the tumor as measured by immune marker gene expression profiles with CD25, TNFA, TYROBP, ICOS and CD45 being modulated >4-fold compared to either therapy alone.

CT26/KSA colon carcinoma = experiment: tumor growth assay, CT26/KSA model; details: Experiments CT26-1-3; 3 or 4 Gy day 0 followed by EMD521873 5 mg/kg i.v. days 2, 3, 4
Description: (§2) CT26 cells, a murine colon epithelial cell line derived by intrarectal injection of N-nitroso-N-methylurethane in BALB/C mice, were transfected to express the human KS antigen (KSA or EpCAM) that was cloned by PCR and expressed in parental cells using a retroviral vector (Gillies 1998). CT26/KSA cells were maintained in DMEM, supplemented with 10% heat inactivated fetal bovine serum, L-glutamine, vitamins, sodium pyruvate, non-essential amino acids, penicillin/streptomycin and Geneticin® (G418) (Life Technologies, Inc.) at 37° C. and 7% CO2. G418 was added to maintain KSA expression. CT26 and CT26/KSA cells were implanted in female BALB/C mice.
(§3) For the tumor growth assay, cells growing exponentially in culture were injected as a single cell suspension in 100 μl of PBS intramuscularly into the upper legs of the mice. […] Thereafter, animal survival was monitored. […] Mice were treated on days 0 to 6 and day 17, and tumor size was measured twice weekly for the duration of the study.
(§4) Tumors were measured with calipers in three dimensions for the duration of the experiment. Tumor volumes were calculated using the equation: […]
The effect of a single dose of radiation given on day 0 followed by i.v. dosing of the immunocytokine (5 mg/kg) was evaluated in three subcutaneous syngeneic tumor models (CT26 colon carcinoma, CT26/KSA colon carcinoma which expresses human EpCAM, and B16 melanoma). […]

CT26 colon carcinoma = experiment: tumor growth assay, CT26 model; details: Experiment CT26-4; 8 Gy followed by i.v. EMD521873 days 2, 3, 4
Description: as §2
as §3, with “legs of the mice. In experiments using a dual tumor model, cells were also implanted in the flanks” for “legs”
as §4
In the CT26 model (Experiment CT26-4), tumors were irradiated with either 4 or 8 Gy followed by i.v. EMD521873 on days 2, 3, and 4. […] Immune response in the tumor was not monitored.

[3] = test system: immune markers in LLC tumors; experiment: immune gene expression profiling of LLC tumors; details: for CD3 gene expression increase / CD8 gene expression increase / CISH gene expression increase / CXCL9 gene expression increase / IFNg gene expression increase: LLC-6; for CD3 gene expression increase: EMD521873+chemoradiation vs EMD521873 or chemoradiation alone; for CD8 gene expression increase / CISH gene expression increase / CXCL9 gene expression increase / IFNg gene expression increase: EMD521873+chemoradiation vs either alone
Procedure: as §1

[4] = LLC-13, radiation in the 2 weeks prior to EMD521873
[5] = LLC-13, radiation in the first week followed by EMD521873

dI-NHS76γ2(h)(FN>AQ)-ala-IL2(D20T) [EMD521873]
CD8 cell infiltration enhanced, irradiated lesion [1]: 9 fold
CD8 cell infiltration enhanced, non-irradiated lesion [1]: 3.5 fold
increase in T cell response (ELISPOT, endogenous CT26 antigen) (CT26-specific T-cells): > 4 fold
CD25, TNFA, TYROBP, ICOS and CD45 gene expression modulated in the tumor [2]: > 4 fold
anti-tumor effect (complete regressions) (CT26/KSA colon carcinoma): a majority of the animals achieved complete regressions
tumor growth (CT26 colon carcinoma): blocked tumor growth beyond either therapy alone
gene expression profiling, panel of immune markers ([3]; Experiments LLC-1, LLC-2, radiation plus EMD521873 compared to either alone): increases in markers for T cell, T cell activation, lymphocyte trafficking, and Th1 response
CD3 gene expression increase ([3]; flank tumor (non-irradiated)): 8 fold
CD8 gene expression increase ([3]; flank tumor): 3.5 fold
CISH gene expression increase ([3]; flank tumor): 3.2 fold
CXCL9 gene expression increase ([3]; flank tumor): 14 fold
IFNg gene expression increase ([3]; flank tumor): 7 fold
CD3 gene expression increase ([3]; leg tumor (irradiated)): > 20 fold
CD8 gene expression increase ([3]; leg tumor): 10 fold
CISH gene expression increase ([3]; leg tumor): 5.8 fold
CXCL9 gene expression increase ([3]; leg tumor): 10.5 fold
IFNg gene expression increase ([3]; leg tumor): 14 fold
12 immune expression markers (GZMB, PDCD1, NKG7, NKG2D, CD3G, ITGAL, CD122, CD8A, FASL, CTLA4, INOS, CD25) upregulated ([3]; LLC-8, LLC-9, EMD521873 plus chemoradiation relative to the maximal level achieved in the monotherapies): 3 to 6 times
immune gene response profile ([3]; LLC-11, EMD521873 followed by radiation, compared to EMD521873 or either radiation regimen alone): not significantly affected
immune response in the tumor (immune gene profiling) ([3]; LLC-12, EMD521873 during the 2nd week of a 3 week course of radiation vs 1 week or 2 week course): blunted
CD3 fold-induction compared to untreated control [3, 4]: ~14 fold
CD8 fold-induction compared to untreated control [3, 4]: ~6 fold
CD25 fold-induction compared to untreated control [3, 4]: ~22 fold
IFNγ fold-induction compared to untreated control [3, 4]: ~10 fold
granzyme fold-induction compared to untreated control [3, 4]: ~2 fold
perforin fold-induction compared to untreated control [3, 4]: ~5 fold
immune response gene profile in the tumor ([3]; LLC-13, radiation in the 3 weeks prior to EMD521873): nearly complete abrogation of the immune response
CD3 fold-induction compared to untreated control [3, 5]: ~50 fold
CD8 fold-induction compared to untreated control [3, 5]: ~19 fold
CD25 fold-induction compared to untreated control [3, 5]: ~45 fold
IFNγ fold-induction compared to untreated control [3, 5]: ~22 fold
granzyme fold-induction compared to untreated control [3, 5]: ~22 fold
perforin fold-induction compared to untreated control [3, 5]: ~8 fold

— patent US20100330029A1, “Cancer Treatments with Radiation and Immunocytokines” (Merck Patent GmbH, priority 2008, published 2010)
